Article PMC2585982 (Toxicology and applied pharmacology, 2008)
Several values for one entry are separate records, joined by “and”; a condition that tells them apart may be missing. Identical values can stand only once. Like-named read-outs stand apart in the source and are kept apart here.

Experiments:
[1] = system: GSTp mRNA; assay: Northern blot of liver RNA, GSTp mRNA in CAR; type: in vivo, mice; settings: isopimpinellin 150 mg/kg p.o. 24 h; TC 3 mg/kg i.p. 6 h
[2] = system: P450s 2B9/10; assay: Liver microsomal P450 2B activity; type: in vivo, mice; settings: mouse, in vivo
[3] = molecular target: T1, PXR (Mus musculus, UniProt O54915); assay: GAL-PXR reporter assay; type: cell-based
T1 sequence (O54915 143-430 limits assumed): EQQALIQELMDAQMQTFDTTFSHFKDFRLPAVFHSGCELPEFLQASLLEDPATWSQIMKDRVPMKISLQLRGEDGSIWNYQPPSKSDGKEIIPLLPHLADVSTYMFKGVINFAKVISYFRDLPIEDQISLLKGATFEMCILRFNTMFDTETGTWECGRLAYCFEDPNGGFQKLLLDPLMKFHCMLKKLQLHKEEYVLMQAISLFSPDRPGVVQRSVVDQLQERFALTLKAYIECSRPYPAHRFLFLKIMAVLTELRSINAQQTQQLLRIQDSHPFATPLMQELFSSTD

[4] = system: P450 2B10; settings: mouse, in vivo
[5] = system: GST (cumene hydroperoxide); assay: Liver GST activity, cumene hydroperoxide as substrate, after oral dosing of mice; type: in vivo; settings: female SENCAR mice, even at the highest doses, data not shown
[6] = system: Cyp2b10 mRNA; assay: Northern blot of liver RNA, Cyp2b10 mRNA in CAR; settings: isopimpinellin 150 mg/kg p.o. 24 h, TC 3 mg/kg i.p. 6 h
[7] = system: GSTα; assay: Western blot of liver cytosol, GSTα protein expression; type: in vivo; settings: SENCAR mice, 35, 70, 150 mg/kg p.o., particularly at the highest doses

COc1c2ccoc2c(OC)c2oc(=O)ccc12 [isopimpinellin, 5,8-dimethoxypsoralen]
Increase in hepatic GSTp mRNA, CAR(−/−) mice [1]: ≥ 5 fold | Increase in hepatic GSTp mRNA, female CAR(+/+) mice [1]: ~ 8 fold | Increase in P450 2B9/10 enzyme activity, dose-response study [2]: 300 fold | P450 2B activity, liver microsomes, dose-response study [2]: significant increases | Increase in P450 2B activity (pentoxyresorufin), liver microsomes ([2]; po, 100 mg/kg): ~ 5 fold | EC50 [3]: ~17 µM | Max (concentration to reach maximal effect), GAL-PXR ([3]; CV-1 cells, 18–24 h): 100,000 nM | EC50 ([3]; ED50, GAL-PXR activation, CV-1 cells, 18–24 h, luciferase normalized by β-gal): 18 µM and 17.8 µM | Concentration to reach maximal effect, times higher than PCN ([3]; GAL-PXR reporter system): 30 times | Increase in P450 2B9/10 protein expression (optical density), dose-response study [4]: 2–3 fold | P450 2B10 protein levels, dose-response study [4]: significantly elevated | P450 2B10 protein expression (western blot densitometry) ([4]; po, 100 mg/kg): increased | GST activity using cumene hydroperoxide as a substrate [5]: no differences | Induction of hepatic Cyp2b10 mRNA, CAR(−/−) mice [6]: attenuated | Induction of hepatic Cyp2b10 mRNA, CAR(+/+) mice ([6]; male and female): ~ 4 fold | Hepatic expression of GST α protein, dose-response study [7]: greatly increased
